Reference: US20240217978A1 (CHONG KUN DANG PHARMACEUTICAL CORP., priority 2021, published 2024)

Target: human adenosine A2a receptor (Homo sapiens (Human), UniProt P29274)
Assay: A2a receptor binding affinity, [3H]-NECA radioligand binding test
Conditions: [3H]-NECA 37 nM; membrane from HEK-293 cells transfected with human adenosine A2a receptor
How it was run: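 Membranes from HEK-293 cells expressing human A2a receptor were incubated with [3H]-NECA (final 37 nM) and compound for 1 h at room temperature in 50 mM Tris, 10 mM MgCl2, 1 mM EDTA, pH 7.4. Bound ligand was filtered on PEI-coated plates and counted by scintillation to derive IC50 (μM).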

Chain of human adenosine A2a receptor (P29274 whole entry): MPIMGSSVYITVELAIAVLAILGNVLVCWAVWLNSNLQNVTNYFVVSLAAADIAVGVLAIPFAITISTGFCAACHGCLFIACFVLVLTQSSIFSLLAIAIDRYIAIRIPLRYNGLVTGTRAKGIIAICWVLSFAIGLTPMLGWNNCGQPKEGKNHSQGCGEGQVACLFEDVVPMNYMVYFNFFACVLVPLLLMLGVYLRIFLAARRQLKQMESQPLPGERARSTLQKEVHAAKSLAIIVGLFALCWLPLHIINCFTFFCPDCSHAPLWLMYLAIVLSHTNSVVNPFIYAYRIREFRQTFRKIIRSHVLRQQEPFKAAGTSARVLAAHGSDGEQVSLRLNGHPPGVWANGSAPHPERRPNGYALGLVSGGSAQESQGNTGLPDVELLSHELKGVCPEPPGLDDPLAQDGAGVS

IC50 [nM] | SMILES
2 | CCCCN1CCN(C(=O)[C@@H]2CCCN2c2nc(N)n3nc(-c4ccco4)nc3n2)CC1=O [Example 247, 4-((7-amino-2-(furan-2-yl)-[1,2,4]triazolo[1,5-a][1,3,5]triazin-5-yl)-L-prolyl)-1-butylpiperazin-2-one]
13 | CC[C@H](Nc1nc(N)n2nc(-c3ccco3)nc2n1)C(=O)N1CCN(c2nccs2)CC1 [Example 248, (S)-2-((7-amino-2-(furan-2-yl)-[1,2,4]triazolo[1,5-a][1,3,5]triazin-5-yl)amino)-1-(4-(thiazol-2-yl)piperazin-1-yl)butan-1-one]
9 | Nc1nc(N[C@H](C(=O)N2CCN(c3nccs3)CC2)C2CCOCC2)nc2nc(-c3ccco3)nn12 [Example 249, (S)-2-((7-amino-2-(furan-2-yl)-[1,2,4]triazolo[1,5-a][1,3,5]triazin-5-yl)amino)-2-(tetrahydro-2H-pyran-4-yl)-1-(4-(thiazol-2-yl)piperazin-1-yl)ethan-1-one]
9 | Nc1nc(N[C@H](C(=O)N2CCN(CC(F)(F)F)CC2)C2CCCCC2)nc2nc(-c3nccs3)nn12 [Example 250, (S)-2-((7-amino-2-(thiazol-2-yl)-[1,2,4]triazolo[1,5-a][1,3,5]triazin-5-yl)amino)-2-cyclohexyl-1-(4-(2,2,2-trifluoroethyl)piperazin-1-yl)ethan-1-one]
13 | C[C@H](Nc1nc(N)n2nc(-c3ccco3)nc2n1)C(=O)N1CCN(c2nccs2)CC1 [Example 251, (S)-2-((7-amino-2-(furan-2-yl)-[1,2,4]triazolo[1,5-a][1,3,5]triazin-5-yl)amino)-1-(4-(thiazol-2-yl)piperazin-1-yl)propan-1-one]
6 | Nc1nc(N2CC[C@H]2C(=O)N2CCN(CC(F)F)CC2)nc2nc(-c3ccco3)nn12 [Example 252, (S)-(1-(7-amino-2-(furan-2-yl)-[1,2,4]triazolo[1,5-a][1,3,5]triazin-5-yl)azetidin-2-yl)(4-(2,2-difluoroethyl)piperazin-1-yl)methanone]
7 | CC(F)(F)CN1CCN(C(=O)[C@@H]2CCN2c2nc(N)n3nc(-c4ccco4)nc3n2)CC1 [Example 253, (S)-(1-(7-amino-2-(furan-2-yl)-[1,2,4]triazolo[1,5-a][1,3,5]triazin-5-yl)azetidin-2-yl)(4-(2,2-difluoropropyl)piperazin-1-yl)methanone]
12 | CCC(F)(F)CN1CCN(C(=O)[C@@H]2CCN2c2nc(N)n3nc(-c4ccco4)nc3n2)CC1 [Example 254, (S)-(1-(7-amino-2-(furan-2-yl)-[1,2,4]triazolo[1,5-a][1,3,5]triazin-5-yl)azetidin-2-yl)(4-(2,2-difluorobutyl)piperazin-1-yl)methanone]
9 | Nc1nc(N2CC[C@H]2C(=O)N2CCN(CC(F)(F)C(F)F)CC2)nc2nc(-c3ccco3)nn12 [Example 255, (S)-(1-(7-amino-2-(furan-2-yl)-[1,2,4]triazolo[1,5-a][1,3,5]triazin-5-yl)azetidin-2-yl)(4-(2,2,3,3-tetrafluoropropyl)piperazin-1-yl)methanone]
1 | Nc1nc(N2CC[C@H]2C(=O)N2CCN(CC(F)(F)C(F)(F)F)CC2)nc2nc(-c3ccco3)nn12 [Example 256, (S)-(1-(7-amino-2-(furan-2-yl)-[1,2,4]triazolo[1,5-a][1,3,5]triazin-5-yl)azetidin-2-yl)(4-(2,2,3,3,3-pentafluoropropyl)piperazin-1-yl)methanone]
8 | Nc1nc(N2CCC[C@H]2C(=O)N2CCN(CC(F)F)CC2)nc2sc(-c3ccco3)nc12 [Example 258, (S)-(1-(7-amino-2-(furan-2-yl)thiazolo[5,4-d]pyrimidin-5-yl)pyrrolidin-2-yl)(4-(2,2-difluoroethyl)piperazin-1-yl)methanone]
3 | CC(F)(F)CN1CCN(C(=O)[C@@H]2CCCN2c2nc(N)c3nc(-c4ccco4)sc3n2)CC1 [Example 259, (S)-(1-(7-amino-2-(furan-2-yl)thiazolo[5,4-d]pyrimidin-5-yl)pyrrolidin-2-yl)(4-(2,2-difluoropropyl)piperazin-1-yl)methanone]
0.9 | Nc1nc(N2CCC[C@H]2C(=O)N2CCN(CC(F)(F)C(F)F)CC2)nc2sc(-c3ccco3)nc12 [Example 260, (S)-(1-(7-amino-2-(furan-2-yl)thiazolo[5,4-d]pyrimidin-5-yl)pyrrolidin-2-yl)(4-(2,2,3,3-tetrafluoropropyl)piperazin-1-yl)methanone]
0.9 | Nc1nc(N2CCC[C@H]2C(=O)N2CCN(CC(F)(F)C(F)(F)F)CC2)nc2sc(-c3ccco3)nc12 [Example 261, (S)-(1-(7-amino-2-(furan-2-yl)thiazolo[5,4-d]pyrimidin-5-yl)pyrrolidin-2-yl)(4-(2,2,3,3,3-pentafluoropropyl)piperazin-1-yl)methanone]
5 | CC(C)(O)CC(=O)N1CCN(C(=O)[C@@H]2CCCN2c2nc(N)c3nc(-c4ccco4)sc3n2)CC1 [Example 262, 1-(4-((7-amino-2-(furan-2-yl)thiazolo[5,4-d]pyrimidin-5-yl)-L-prolyl)piperazin-1-yl)-3-hydroxy-3-methylbutan-1-one]
25 | CC(C)(O)CC(=O)N1CCN(C(=O)[C@@H]2CCCN2c2nc(N)c3nc(-c4ccco4)oc3n2)CC1 [Example 263, 1-(4-((7-amino-2-(furan-2-yl)oxazolo[5,4-d]pyrimidin-5-yl)-L-prolyl)piperazin-1-yl)-3-hydroxy-3-methylbutan-1-one]
10 | Nc1nc(N2CC[C@H]2C(=O)N2CCN(CCCC(F)(F)F)CC2)nc2nc(-c3ccco3)nn12 [Example 264, (S)-(1-(7-amino-2-(furan-2-yl)-[1,2,4]triazolo[1,5-a][1,3,5]triazin-5-yl)azetidin-2-yl)(4-(4,4,4-trifluorobutyl)piperazin-1-yl)methanone]
44 | CCCCN1CCC(C2CCN(C(=O)[C@@H]3CCCN3c3nc(N)n4nc(-c5ccco5)nc4n3)CC2)CC1 [Example 265, (S)-(1-(7-amino-2-(furan-2-yl)-[1,2,4]triazolo[1,5-a][1,3,5]triazin-5-yl)pyrrolidin-2-yl)(1′-butyl-[4,4′-bipiperidin]-1-yl)methanone]
15 | COCCN1CCC(C2CCN(C(=O)[C@@H]3CCCN3c3nc(N)n4nc(-c5ccco5)nc4n3)CC2)CC1 [Example 266, (S)-(1-(7-amino-2-(furan-2-yl)-[1,2,4]triazolo[1,5-a][1,3,5]triazin-5-yl)pyrrolidin-2-yl)(1′-(2-methoxyethyl)-[4,4′-bipiperidin]-1-yl) methanone]
10.8 | CC(C)(O)C(=O)N1CCN(C(=O)[C@@H]2CCN2c2nc(N)n3nc(-c4ccco4)nc3n2)CC1 [Example 267, (S)-1-(4-(1-(7-amino-2-(furan-2-yl)-[1,2,4]triazolo[1,5-a][1,3,5]triazin-5-yl)azetidine-2-carbonyl)piperazin-1-yl)-2-hydroxy-2-methylpropan-1-one]
39 | Nc1nc(N2CCC[C@H]2C(=O)N2CCN(CC(F)F)CC2)nc2oc(-c3ccco3)nc12 [Example 269, (S)-(1-(7-amino-2-(furan-2-yl)oxazolo[5,4-d]pyrimidin-5-yl)pyrrolidin-2-yl)(4-(2,2-difluoroethyl)piperazin-1-yl)methanone]
9 | CCC(F)(F)CN1CCN(C(=O)[C@@H]2CCCN2c2nc(N)c3nc(-c4ccco4)oc3n2)CC1 [Example 270, (S)-(1-(7-amino-2-(furan-2-yl)oxazolo[5,4-d]pyrimidin-5-yl)pyrrolidin-2-yl)(4-(2,2-difluorobutyl)piperazin-1-yl)methanone]
10 | Nc1nc(N2CCC[C@H]2C(=O)N2CCN(CC(F)(F)C(F)F)CC2)nc2oc(-c3ccco3)nc12 [Example 271, (S)-(1-(7-amino-2-(furan-2-yl)oxazolo[5,4-d]pyrimidin-5-yl)pyrrolidin-2-yl)(4-(2,2,3,3-tetrafluoropropyl)piperazin-1-yl)methanone]
15 | Nc1nc(N[C@@H](CN2CCCCC2)C(=O)N2CCN(c3ccc(F)cc3F)CC2)nc2nc(-c3ccco3)nn12 [Example 272, (S)-2-((7-amino-2-(furan-2-yl)-[1,2,4]triazolo[1,5-a][1,3,5]triazin-5-yl)amino)-1-(4-(2,4-difluorophenyl)piperazin-1-yl)-3-(piperidin-1-yl)propan-1-one]
20 | Nc1nc(N[C@@H](CN2CCOCC2)C(=O)N2CCN(c3ccc(F)cc3F)CC2)nc2nc(-c3ccco3)nn12 [Example 273]
8 | CC(C)(O)C(=O)N1CCN(C(=O)[C@@H]2CCCN2c2nc(N)n3nc(-c4ccco4)nc3n2)CC1 [Example 274, 1-(4-((7-amino-2-(furan-2-yl)-[1,2,4]triazolo[1,5-a][1,3,5]triazin-5-yl)-L-prolyl)piperazin-1-yl)-2-hydroxy-2-methylpropan-1-one]
26 | CC(C)(O)CC(=O)N1CCN(C(=O)[C@@H]2CCN2c2nc(N)c3nc(-c4ccco4)sc3n2)CC1 [Example 275, (S)-1-(4-(1-(7-amino-2-(furan-2-yl)thiazolo[5,4-d]pyrimidin-5-yl)azetidin-2-carbonyl)piperazin-1-yl)-3-hydroxy-3-methylbutan-1-one]
7 | Nc1nc(N2CCC[C@H]2C(=O)N2CCCN(c3ccc(F)cc3F)CC2)nc2nc(-c3ccco3)nn12 [Example 276, (S)-(1-(7-amino-2-(furan-2-yl)-[1,2,4]triazolo[1,5-a][1,3,5]triazin-5-yl)pyrrolidin-2-yl)(4-(2,4-difluorophenyl)-1,4-diazepan-1-yl)methanone]

SMILES | IC50 [nM]
Nc1nc(N2CC[C@H]2C(=O)N2CCN(CC(F)(F)C(F)(F)C(F)(F)F)CC2)nc2nc(-c3ccco3)nn12 [Example 257, (S)-(1-(7-amino-2-(furan-2-yl)-[1,2,4]triazolo[1,5-a][1,3,5]triazin-5-yl)azetidin-2-yl)(4-(2,2,3,3,4,4,4-heptafluorobutyl)piperazin-1-yl)methanone] | 0.8
